Experimental data: US20240207241A1, “Method for Promoting Functional Cure of AIDS by Reducing HIV Reservoir with Lenalidomide” (priority 2022, published 2024)

Legend:
[1] = Clinical cohort: inflammatory markers and cytokines in peripheral blood and CSF of HIV patients on lenalidomide; assay type: in vivo, human
Method: HIV patients with CM after antiretroviral therapy (ART) were recruited. […] Lenalidomide (25 mg) was orally administered at days 1 to 21 in a 28-day cycle, and ART was continued for 48 weeks. The participants were followed up at 7 points (base line 0w, 4w, 8w, 12w, 24w, 36w, and 48w). Inflammatory cytokines in CSF and peripheral blood were detected at each follow-up point, and PBMCs were extracted from the patients and detected for indicators of HIV reservoir.

[2] = system: HIV reservoir; test: Clinical cohort: indicators of HIV reservoir (CA HIV RNA) in PBMCs extracted from patients; assay type: in vivo, human
Method: HIV patients with CM after antiretroviral therapy (ART) were recruited. These participants had central damage after receiving standard anti-fungal therapy, elevated cerebrospinal fluid (CSF) protein level, age of 18 years or more, and plasma HIV RNA of <50 copies/ml and CD4 T cell count of >100 cells/mm3 after receiving ART for at least 48 weeks. Lenalidomide (25 mg) was orally administered at days 1 to 21 in a 28-day cycle, and ART was continued for 48 weeks. The participants were followed up at 7 points (base line 0w, 4w, 8w, 12w, 24w, 36w, and 48w). Inflammatory cytokines in CSF and peripheral blood were detected at each follow-up point, and PBMCs were extracted from the patients and detected for indicators of HIV reservoir. […] For CA HIV-RNA, lenalidomide has a great influence. […] The subjects Nos. 110 and 113 have a decline that exceeds 2 log order of magnitude.

[3] = system: U1 cells; test: CCK8 survival rate of U1 cells; assay type: cell-based; conditions: lenalidomide 0.5, 1, 2, 5, 10, and 20 μmol/L, 24 hrs
Method: CCK8 was used to evaluate the safety of lenalidomide when U1 cells were treated with it in vitro. After U1 cells were treated with various concentrations of lenalidomide (0.5, 1, 2, 5, 10, and 20 μmol/L) for 24 hrs, the survival rate of U1 cells was detected by CCK8 kit. […] There is no significant difference between the control group and various concentration groups and between the various concentration groups. Lenalidomide has a high safety when acting on latent cell lines in vitro.

[4] = system: latent HIV cell line U1; test: P24 ELISA in supernatant of U1 cells stimulated with latent activator; assay type: cell-based; conditions: pretreated 1, 2, and 5 μmol/L lenalidomide 24 hrs
Method: U1 cells were pretreated with various concentrations of lenalidomide (1, 2, and 5 μmol/L) for 24 hrs, and then the U1 cells pre-treated with lenalidomide were stimulated with a latent activator (TNF-a, PMA, or LPS). The U1 cells in the negative control group were cultured alone, and the U1 cells in the positive control group were not pretreated with lenalidomide. The activation of P24 protein in the supernatant of latent cells U1 was detected by ELISA. […] Compared with the positive control group, the P24 contents decline in the supernatants of the three experimental groups pretreated with 1, 2, and 5 μmol/L lenalidomide, and the difference is statistically significant (P=0.0029, 0.0019, and 0.0017, B in FIG. 3). The difference between various concentrations of lenalidomide groups is not obvious. (2) In the experiment where TNF-α of 20 μg/ml is used as the latent activator, similar results are observed. […] (3) The study of endotoxin (LPS, 10 μg/ml) as a latent activator is rare.

[5] = system: HIV-1 latent cell line U1; test: Viral mRNA expression in U1 cells activated with LPS; assay type: cell-based; conditions: lenalidomide 2 μmol/L pretreatment 24 hrs
Method: After the HIV-1 latent cell line is activated by activator, the expression of viral mRNA in the cells is increased, causing the production of virions. […] The U1 cells were divided into three groups. The negative control group was added with the same amount of culture medium. In the positive control group, cells were pretreated with the culture medium, and LPS was added as an activator after 24 hrs. In the experimental group, lenalidomide (2 μmol/L) was added to pretreat the cells for 24 hrs and then LPS was added to activate the cells. […] (2) The expression levels of multi-spliced RNA, single-spliced RNA and non-spliced RNA in U1 were also detected.

[6] = system: HIV-1 primary cell CD8-PBMCs; test: Virus reactivation in HIV-1 primary cells CD8-PBMCs (intracellular P24 by flow cytometry, CA HIV RNA by RT-PCR); assay type: cell-based, human
Method: Lenalidomide is confirmed to inhibit the transcription of virus in HIV-1 latent cell line, and whether it has the same effect in HIV primary cells is unknown. CD8-PBMCs were divided into an experimental group and a positive control group and treated with or without lenalidomide for 5 days. Both groups were supplemented with LPS irregularly. In the negative control group, the same amount of DMSO was added for control culture throughout the whole process. After 5 days, the cells were broken, and the difference in expression of intracellular P24 protein in CD8-PBMCs was detected by flow cytometry. As shown in A in FIG. 5, in the positive control group, the intracellular HIV-1 core P24 in CD8-PBMCs reaches 9.76% after the continuous action of activator. […] The differences in the expression of CA HIV RNA in the five samples were also detected.

[7] = system: PBMCs derived from HIV-1 patients; test: Cytokines in supernatant of PBMCs from HIV-1 patients (cytometric bead array); assay type: cell-based, human; conditions: PBMCs co-cultured with lenalidomide 24 hrs vs control group
Method: The in-vitro regulatory effect of lenalidomide was verified as follows. PBMCs were separated from peripheral blood donated by HIV-1 patients, and divided into a control group and an experimental group. The control group was cultured alone, and the experimental group was co-cultured with lenalidomide. After 24 hrs, the supernatant was taken for cytokine detection. The level of cytokines in the supernatant was measured by a cytometric bead array kit.

[8] = system: J-lat10.6 cells; test: GFP activation of J-lat10.6 cells by supernatant of PBMCs treated with lenalidomide; assay type: cell-based; conditions: supernatant added with lenalidomide; control supernatant activates GFP by 51.7%
Description: (§1) Lenalidomide has a powerful immunomodulatory effect, and can inhibit the release of pro-inflammatory cytokines in PBMCs derived from HIV patients in vitro and promote the secretion of anti-inflammatory cytokine IL-10. However, whether this degree of immunomodulation can inhibit HIV replication was not confirmed. The latent cell lines J-lat10.6 and C11 cells were used for the experiment. The supernatants of the experimental group and control group were used to stimulate J-lat10.6 and C11 cells, respectively. […] Lenalidomide can regulate the release of inflammatory cytokines in PBMCs from HIV-1 patients in vitro, and this bypass pathway can inhibit virus reactivation in HIV-1 latent cell lines.

[9] = system: C11 cells; test: GFP activation of C11 cells by supernatant of PBMCs treated with lenalidomide; assay type: cell-based; conditions: supernatant of lenalidomide group; control group 23.17%
Description: as §1

[10] = peripheral blood, after lenalidomide treatment

## Nc1cccc2c1CN(C1CCC(=O)NC1=O)C2=O (stereo not drawn) [lenalidomide]
[1]; CSF
  IL-6 level in CSF: significantly reduces
  TNF-a level in CSF: significantly reduces
[1]; [10]
  IL-6: decrease significantly
  TNF-a: decrease significantly
[1]; peripheral blood, lenalidomide 25 mg oral days 1 to 21 of 28-day cycle, after 7 weeks
  CRP of HIV subjects: decrease
[1]; peripheral blood, lenalidomide 25 mg oral days 1 to 21 of 28-day cycle, after 12 weeks
  D-dimer of HIV subjects: decrease
[2]; 13 patients, from the 24th week, more obvious at the 48th week
  CA HIV-RNA: declines obviously
[2]; subjects Nos. 110 and 113
  decline of CA RNA: exceeds 2 log order of magnitude
[3]
  survival rate of U1 cells: less affected
[4]; LPS 10 μg/ml
  P24 content in supernatant vs positive control group: significantly lower
[4]; PMA 20 nmol/L 24 hrs
  P24 content in supernatant vs positive control group: decline
[4]; TNF-α 20 μg/ml
  P24 content in supernatant vs positive control group: significantly lower
[5]; then LPS
  expression level of multi-spliced RNA: significantly inhibits
  expression level of non-spliced RNA: significantly inhibits
  expression level of single-spliced RNA: significantly inhibits
[5]; then LPS 10 μg/ml 24 hrs
  mRNA level of Gag: basically inhibited
  mRNA level of Rev protein: basically inhibited
[6]; 5 days with lenalidomide and LPS, positive control 9.76%, DMSO control 0.73%
  expression of intracellular antigen P24: 4.15%
[6]; five samples, RT-PCR
  decrease of average amount of CA HIV-1 RNA vs positive control group: 0.49 time
[7]
  IL-6 in supernatant: decrease significantly
  IL-10 in supernatant: increases significantly
  TNF-α in supernatant: decrease significantly
[8]
  J-lat10.6 GFP: 24.21%
[9]
  GFP activation of C11 cells: 8.09%
